In US20150335719A1, “Intravitreal Injection of a Chimeric Phage Endolysin Ply187; Protection from Staphylococcus aureus Endophthalmitis” (priority 2014, published 2015):

Columns and labels:
[1] = system: S. aureus (strain RN6390, USA 300, R 2932, R 2952, R 3000) biofilms; experiment: Biofilm disruption (Live/Dead BacLight staining and CFU count); type: cell-based, Staphylococcus aureus; conditions: 24 h biofilms treated for 30 min
Experimental: FIGS. 2A-2E depicts the biofilm disruption activity of chimeric Ply187AN-KSH3b. In FIG. 2A-2E, either chimeric Ply187AN-KSH3b or EB (EB C) or Gentamicin (for MDR/MRSA strains/isolates) was applied to cover slips containing S. aureus RN6390 (FIG. 2A), USA 300 (FIG. 2B), R 2932 (FIG. 2C), R 2952 (FIG. 2D) and R3000 (FIG. 2E) biofilms for 30 min. Bacterial killing was assessed via Live/Dead™ staining and subsequent fluorescence microscopy. FIG. 2F depicts the viability of biofilm associated bacteria enumerated by CFU count. Error bars represent the mean±SEM of two independent experiments performed in triplicate.
Biofilm disruption by the chimeric Ply187AN-KSH3b was observed using Live/Dead BacLight™ staining which takes advantage of SYTO™ 9, a green-fluorescent nucleic acid stain and propidium iodide that fluoresces red. SYTO™ 9 labels a bacterial population with an intact membrane and fluoresces green. In contrast, propidium iodide penetrates bacteria with damaged membranes and fluoresces red. Briefly, static biofilms of S. aureus (strain RN6390, USA 300, R 2932, R 2952, R 3000) were grown on glass cover slips in 6 well tissue culture plates in fresh TSB media seeded with S. aureus. After incubation at 37° C. for 24 h, the biofilms were treated for an additional 30 min with chimeric Ply187AN-KSH3b (as per MIC) diluted in EB or with EB/gentamicin alone. The biofilms were then stained with the Live/Dead BacLight™ bacterial viability kit (Invitrogen, Carlsbad, Calif.), per manufacturer's instruction. The cover slips were washed three times with PBS to remove excess stain and cell debris, mounted with mounting oil on a glass slide, and examined with an Eclipse 90i fluorescence microscope (Nikon, Melville, N.Y.).

S. aureus strain RN6390 = experiment: Resistance development assay by repeated exposure in an MIC assay; type: cell-based, Staphylococcus aureus; conditions: RN6390, up to 10 rounds of exposure
Experimental: Error bars represent SEM for three independent experiments performed in triplicates. […] Cells surviving at half (½) of the MIC value were used as an inoculum for each subsequent round of exposure. The change in susceptibility is recorded and presented as fold change resistance from day 1 to 10 of exposure and also after 5 days of growth (without any selection pressure) following the 10th day (represented as 10+5). The data represent means±SEM of two independent experiments performed in triplicate.
To verify and quantify the lytic activity against live S. aureus, we have tested Ply187AN-KSH3b in the Turbidity Reduction Assay. The turbidity assay measures the drop in optical density (OD) resulting from lysis of the target bacteria with the phage endolysin-derived protein. Turbidity reduction assays by chimeric Ply187AN-KSH3b were performed in a 96 well plate as described previously by Becker et al. (2009a, 2009b, supra). Briefly, S. aureus strains/isolates RN6390, USA 300, and clinical isolates R2932, R2952 and R3000 were grown to logarithmic phase (OD600 0.4-0.6) at 37° C. in tryptic Soy broth (TSB). The culture was harvested by centrifugation and the pellet was resuspended in assay buffer (400 mM NaCl, 20 mM Tris HCl, 1% glycerol, pH 7.5). Bacterial cultures (100 μl/well) were mixed with 100 μl of (as per MIC) of chimeric Ply187AN-KSH3b protein diluted in the same assay buffer. The reduction in the turbidity was measured after every 5 min up to 1 h using a micro plate reader. EB diluted in the same assay buffer (without chimeric Ply187AN-KSH3b protein) was used as a control (EB C). Resistance development against chimeric Ply187AN-KSH3b was tested using repeated exposure in an MIC assay as described by Rodriguez-Rubio and co-workers (Rodriguez-Rubio et al., PLoS One 8:e64671.). In brief, bacterial cultures (10^5 CFU/well) were exposed overnight to a 2-fold serial dilution of chimeric Ply187AN-KSH3b, lysostaphin, and gentamicin, where the latter serve as controls. […]

Substance | biofilm disruption by Live/Dead staining [1] | fold change in resistance (S. aureus strain RN6390) [fold]
gentamicin [reference compound] | green fluorescence | 16
lysostaphin |  | 128
